Reference: patent US20030129677A1, “Diagnostic method for screening complement regulatory protein levels” (priority 2000, published 2003)

Tested on: DAF (CD55) on MCF-7 breast cancer cells
Experiment: TNF-α modulation of DAF (CD55) on MCF-7 breast cancer cells (western blot, densitometry)
Assay type: cell-based
Conditions: MCF-7 cells, different concentrations of recombinant TNF-α for 18 hours
Experimental: Estrogen primed and unprimed MCF-7 cells were treated with different concentrations of recombinant TNF-α for 18 hours. Estrogen primed cells were treated overnight with 20 ng/ml β estradiol. DAF protein was extracted by lysis treatment of cells and quantitated, run on SDS-PAGE followed by western blot analysis using anti DAF antibody. Bands were visualized by ECL method (Amersham). DAF levels were quantitated densitometrically and expressed as densitometric units.

TNF-α
DAF (CD55) expression (estrogenized conditions (primed overnight with 20 ng/ml β estradiol), FIG. 5): upregulated CD55 in a dose dependent manner | DAF (CD55) expression (nonestrogenized conditions): downregulated expression of CD55 in a dose dependent manner
